Read-outs that look alike come from different tables or passages of the source.
Columns and labels:
MDCK cells = test: Cytotoxicity on MDCK cells (MTT and Trypan Blue exclusion); details: 1–30 µM, Toxic = toxic at all tested concentrations
[1] = test system: influenza virus A/Puerto Rico/8/34 H1N1 (PR8); test: microbe, parasite or virus in culture; assay type: cell-based
[2] = test system: influenza virus A/Puerto Rico/8/34 H1N1 (PR8); test: microbe, parasite or virus in culture; details: unidentified influenza virus, A549, read-out: IC50, ICW – A549
in vitro = details: human
[3] = test system: influenza virus A/Puerto Rico/8/34 H1N1 (PR8); test: microbe, parasite or virus in culture; details: H1N1|PR8, A549, read-out: IC50, HAU – A549
[4] = test system: influenza virus A/Puerto Rico/8/34 H1N1 (PR8); details: A549 cells, CC50 by Trypan Blue exclusion
[5] = test system: influenza virus A/Puerto Rico/8/34 H1N1 (PR8); details: A549 cells; CC50 from Cell Tag in mock infected cells, IC50 by ICW
[6] = MDCK cells infected with PR8 (m.o.i. 0.001), HAU in supernatants 24 h p.i., Inactive = at maximum tested concentration (30 µM)
[7] = unidentified influenza virus, MDCK, 24 h, read-out: IC50 (concentration required to inhibit viral replication of 50%), MDCK cells infected with PR8 (m.o.i. 0.001), HAU in supernatants 24 h p.i., Inactive = at maximum tested concentration (30 µM)

O=[N+]([O-])c1ccc(NCCCCCCO)c2nonc12 [Compound 45]
Cytotoxicity (MDCK cells): NOT toxic | IC50 (concentration required to inhibit viral replication of 50%) [1, 6]: Inactive^b | IC50 [1, 7]: > 30 µM

CCOC(=O)c1ccc(CSc2ccc([N+](=O)[O-])c3nonc23)cc1 [Compound 42]
IC50 [1, 7]: 17.2 ± 1.6 µM

CCOC(=O)c1ccc(Sc2ccc([N+](=O)[O-])c3nonc23)cc1 [Compound 30]
IC50 (concentration required to inhibit viral replication of 50%) [1, 6]: Inactive^b | IC50 [1, 7]: > 30 µM

O=C(O)c1cccc(Sc2ccc([N+](=O)[O-])c3nonc23)c1 [Compound 28]
IC50 (concentration required to inhibit viral replication of 50%) [1, 6]: Inactive^b | IC50 [1, 7]: > 30 µM

O=C(O)Cc1ccc(Sc2ccc([N+](=O)[O-])c3nonc23)cc1 [Compound 39]
IC50 (concentration required to inhibit viral replication of 50%) [1, 6]: Inactive^b | IC50 [1, 7]: > 30 µM

O=C(CCSc1ccc([N+](=O)[O-])c2nonc12)NCCO [Compound 14]
IC50 (concentration required to inhibit viral replication of 50%) [1, 6]: Inactive^b | IC50 [1, 7]: > 30 µM

COC(=O)CCSc1ccc([N+](=O)[O-])c2nonc12 [Compound 12]
IC50 [2]: 10 ± 0.5 µM | CC50 at 24 h (in vitro): 54.5 µM | IC50 [3]: 5.1 ± 0.2 µM | SI (CC50/IC50 HAU – A549) [4]: 11 | IC50 (concentration required to inhibit viral replication of 50%) [1]: effective against IV | SI (CC50/IC50 ICW – A549) [5]: 5

O=C(O)c1ccccc1Sc1ccc([N+](=O)[O-])c2nonc12 [Compound 27]
IC50 (concentration required to inhibit viral replication of 50%) [1, 6]: Inactive^b | IC50 [1, 7]: > 30 µM

O=C(O)c1ccc(CSc2ccc([N+](=O)[O-])c3nonc23)cc1 [Compound 41]
IC50 (concentration required to inhibit viral replication of 50%) [1]: effective against IV | IC50 [1, 7]: 10.8 ± 0.6 µM

O=C(O)CCc1ccc(Sc2ccc([N+](=O)[O-])c3nonc23)cc1 [Compound 40]
IC50 (concentration required to inhibit viral replication of 50%) [1]: effective against IV | IC50 [1, 7]: 18.3 ± 1.6 µM

O=[N+]([O-])c1ccc(S(=O)(=O)CCCCCCO)c2nonc12 [Compound 44]
IC50 (concentration required to inhibit viral replication of 50%) [1, 6]: Inactive^b | IC50 [1, 7]: > 30 µM

O=C(O)CCC(=O)OCCOCCSc1ccc([N+](=O)[O-])c2nonc12 [Compound 11, 4–(2–(2-((7-nitrobenzo[c][1,2,5]oxadiazol-4-yl)thio)ethoxy)ethoxy)-4-oxobutanoic acid]
melting point: 74 to 76 °C | IC50 (concentration required to inhibit viral replication of 50%) [1]: effective against IV | IC50 [1, 7]: > 30 µM

CN(C)CCNC(=O)c1ccc(Sc2ccc([N+](=O)[O-])c3nonc23)cc1 [Compound 38]
IC50 (concentration required to inhibit viral replication of 50%) [1, 6]: Inactive^b | IC50 [1, 7]: > 30 µM

O=C(O)CCC(=O)OCCCCSc1ccc([N+](=O)[O-])c2nonc12 [Compound 9, 4–(4-((7-nitrobenzo[c][1,2,5]oxadiazol-4-yl)thio)butoxy)-4-oxobutanoic acid]
melting point: 90 to 93 °C | IC50 (concentration required to inhibit viral replication of 50%) [1]: effective against IV | IC50 [1, 7]: 17.1 ± 0.9 µM

O=C(O)CCC(=O)OCCCCCCSc1ccc([N+](=O)[O-])c2nonc12 [Compound 10]
IC50 [1, 7]: 22.2 ± 1.4 µM

NC(=O)c1ccc(Sc2ccc([N+](=O)[O-])c3nonc23)cc1 [Compound 31]
IC50 (concentration required to inhibit viral replication of 50%) [1, 6]: Inactive^b | IC50 [1, 7]: > 30 µM

O=[N+]([O-])c1ccc(SCCCCCCCCO)c2nonc12 [Compound 6]
IC50 [1, 7]: > 30 µM

CC(=O)N[C@@H](CSc1ccc([N+](=O)[O-])c2nonc12)C(=O)O [Compound 19, N-acetyl-S-(7-nitrobenzo[c][1,2,5]oxadiazol-4-yl)cysteine]
melting point: 166 to 168 °C | IC50 (concentration required to inhibit viral replication of 50%) [1]: effective against IV | IC50 [1, 7]: 24 ± 2.3 µM

O=C(NCCO)c1ccc(Sc2ccc([N+](=O)[O-])c3nonc23)cc1 [Compound 37]
IC50 (concentration required to inhibit viral replication of 50%) [1, 6]: Inactive^b | IC50 [1, 7]: > 30 µM

COC(=O)C(CSc1ccc([N+](=O)[O-])c2nonc12)NC(=O)OC(C)(C)C (stereo not shown) [Compound 17]
IC50 [2]: 9.6 ± 0.8 µM | IC50 [3]: 11.7 ± 1 µM | SI (CC50/IC50 HAU – A549) [4]: 2 | IC50 (concentration required to inhibit viral replication of 50%) [1]: effective against IV | SI (CC50/IC50 ICW – A549) [5]: 3

O=[N+]([O-])c1ccc(Sc2ncccn2)c2nonc12 [Compound 22, 4-nitro-7-(pyrimidin-2-ylthio)benzo[c][1,2,5]oxadiazole]
melting point: 144 to 147 °C

CN(C)C(=O)c1ccc(Sc2ccc([N+](=O)[O-])c3nonc23)cc1 [Compound 32]
IC50 [1, 7]: > 30 µM

O=C(NO)c1ccc(Sc2ccc([N+](=O)[O-])c3nonc23)cc1 [Compound 33]
IC50 (concentration required to inhibit viral replication of 50%) [1, 6]: Inactive^b | IC50 [1, 7]: > 30 µM

O=[N+]([O-])c1ccc(SCc2ccccc2)c2nonc12 [Compound 25]
IC50 [2]: 8.9 ± 0.6 µM | IC50 [3]: 1.9 ± 0.1 µM | SI (CC50/IC50 HAU – A549) [4]: 6 | IC50 (concentration required to inhibit viral replication of 50%) [1]: effective against IV | IC50 ([1]; read-out: IC50 (concentration required to inhibit viral replication of 50%), MDCK cells infected with PR8 (m.o.i. 0.001), HAU in supernatants 24 h p.i., Inactive = at maximum tested concentration (30 µM)): 6.3 ± 0.5 µM | IC50 [1, 7]: < 10 µM | SI (CC50/IC50 ICW – A549) [5]: 4

CC(C)(C)Sc1ccc([N+](=O)[O-])c2nonc12 [Compound 21]
IC50 (concentration required to inhibit viral replication of 50%) [1, 6]: Inactive^b | IC50 [1, 7]: > 30 µM

O=[N+]([O-])c1ccc(Sc2nc3ccccc3[nH]2)c2nonc12 [Compound 23, 4-((1H-benzo[d]imidazol-2-yl)thio)-7-nitrobenzo[c][1,2,5]oxadiazole]
melting point: 206 to 208 °C | IC50 (concentration required to inhibit viral replication of 50%) [1, 6]: Inactive^b | IC50 [1, 7]: > 30 µM

O=[N+]([O-])c1ccc([S+]([O-])CCCCCCO)c2nonc12 (stereo not shown) [Compound 43]
IC50 (concentration required to inhibit viral replication of 50%) [1, 6]: Inactive^b | IC50 [1, 7]: > 30 µM

O=C1CCN(C(=O)CCSc2ccc([N+](=O)[O-])c3nonc23)CC1 [Compound 16]
Cytotoxicity (MDCK cells): Toxic^a

From article PMC8480593, “Anti-influenza A virus activity and structure–activity relationship of a series of nitrobenzoxadiazole derivatives” (Journal of Enzyme Inhibition and Medicinal Chemistry, 2021)
